# Data taken from patent US10597696B2, “Detection of Niemann-Pick disease comprising detection of lysozyme and cathepsins” (UNIVERSITY OF NOTRE DAME DU LAC, priority 2013, dated 2020).
# “Also recorded” adds a separate entry of the source.
# Experiments:
# [1] = test system: Npc1^nmf164 homozygous mutant mice; experiment: Plasma lysozyme activity in HPβCD-treated Npc1^nmf164 mice; type: in vivo, mouse; conditions: once a week i.p. from age 21-27 days, plasma at 50-55 days, vs vehicle/untreated
# [2] = test system: Npc1^nih Npc1^−/− mouse liver; experiment: qPCR of cathepsins, inflammation and fibrosis markers in liver after HPβCD; type: in vivo
# From the text: (§1) In mice, formalin fixed paraffin embedded tissue was sectioned (4-5 μm) and total RNA was isolated using RNeasy FFPE kit (Qiagen, Germantown, Md., USA) which included treatment with DNAse. Frozen human liver and cerebellum from 4 NPC patients and 4 age-, gender- and ethnicity-matched controls were obtained from the NICHD Brain and Tissue Bank for Developmental Disorders (University of Maryland, Baltimore, Md., USA), as approved by the Institutional Review Board (IRB), of the University of Notre Dame, Ind., USA (FWA 00002462). Total RNA was isolated using RNeasy kit (Qiagen, Germantown, Md., USA). Eluted RNA was further digested with RNase free DNaseI and re-purified using RNeasy column. The quality of RNA was checked using Bioanalyzer chip (Agilent Technologies, Santa Clara, Calif., USA) and quantity was determined using Nanodrop 2000 (Thermo Fisher Scientific, Waltham, Mass., USA). Quantitative PCR (qPCR) was performed using Power SYBR Green RNA-to-CT 1-Step Kit and an ABI Prism 7500 Fast real-time PCR system (Applied Biosystems, Grand Island, USA). Reaction was set in 20 μl using 100 nM primers and 5-100 ng total RNA as template. The thermal cycling parameters were as follows: step 1, 48° C. for 30 min; step 2, 95° C. for 10 min; step 3, 95° C. for 15 sec ° C.; step 4, 60° C. for 15 sec. Step 3-4 was repeated for 40 cycles followed by melt curve analysis. Specific amplification was validated by analysis of template titration, melt curves and agarose gel electrophoresis. In both mouse and human tissues, the mRNA levels were normalized to the housekeeping gene, Gapdh (Glyceraldehyde 3-phosphate dehydrogenase). Fold change was calculated by relative standard curve method after correcting PCR efficiency. In mice, the fold change in expression levels of different genes in Npc1^−/− was calculated relative to average levels of expression in Npc1^+/− mice. In human tissues, fold change in transcript expression in NPC liver and cerebellum was expressed relative to average expression in age-matched controls. Starting at P21 and once a week thereafter, Npc1^nih and Npc1^nmf164 mice were injected i.p with 20% 2-hydroxypropyl-beta-cyclodextrin (HPβCD, 4000 mg/Kg) prepared in 0.2% DMSO and 0.9% saline. Control mice received 0.2% DMSO in 0.9% saline. Blood was collected either via cheek bleed or terminal heart bleed from mice in EDTA tubes (BD Biosciences, San Jose, Calif., USA). Plasma was separated by centrifugation at 2500 rpm for 15 min and stored at −70° C. until used.
# [3] = test system: Npc1^nih Npc1^−/− mouse brain; experiment: qPCR of cathepsins and inflammatory markers in brain after HPβCD; type: in vivo
# From the text: as §1
# Npc1^nih mice [4] = experiment: Onset of symptoms and survival of HPβCD-treated Npc1^nih mice; type: in vivo, mouse; conditions: weekly 4000 mg/Kg from P21
# Experimental: (§2) Starting at P21 and once a week thereafter, Npc1^nih and Npc1^nmf164 mice were injected i.p with 20% 2-hydroxypropyl-beta-cyclodextrin (HPβCD, 4000 mg/Kg) prepared in 0.2% DMSO and 0.9% saline. Control mice received 0.2% DMSO in 0.9% saline. Blood was collected either via cheek bleed or terminal heart bleed from mice in EDTA tubes (BD Biosciences, San Jose, Calif., USA). Plasma was separated by centrifugation at 2500 rpm for 15 min and stored at −70° C. until used.
# To examine time points of advanced disease, we returned to the shorter, Npc1^nih model. This model typically manifests phenotypic symptoms (weight loss, gait, tremor etc.) from ˜50-55 days and survives up to ˜80-84 days (FIG. 18A). […] We therefore treated Npc1^−/− mice with HPβCD or vehicle control (0.2% DMSO in 0.9% saline) with once a week drug injections (4000 mg/Kg) starting at age P21. […] As reported earlier, the plasma lysozyme activity of vehicle treated Npc1^−/− mice was elevated on average 2-fold in early symptomatic (50-60 days) animals (FIG. 18B) and remained elevated at the late symptomatic stage (70 days) compared to age matched controls (FIG. 18C).
# Npc1^nih Npc1^−/− mice = experiment: Plasma 24(S)-hydroxy cholesterol ELISA after HPβCD; type: in vivo, mouse
# Experimental: as §2, with “Plasma 24-HC concentration was determined using ELISA kit from Enzo Life Sciences (Farmingdale, N.Y., USA) according to the manufacturer's instructions. Plasma was diluted to 1:1000 in supplied buffer and measurements were done in triplicate wells. Pure 24-HC (supplied with kit) was used to prepare the standard curve. 24-HC concentration was normalized to plasma protein content. Starting” for “Starting”
# Npc1^nih mice [5] = conditions: cited from earlier work
# Npc1^pf/pf mice = conditions: weekly injections to Npc1^pf/pf mice, previous study; cited from earlier work
compound,measurement,setting,value
"CC(O)COC[C@H]1O[C@@H]2O[C@H]3[C@H](O)[C@@H](O)[C@@H](O[C@H]4[C@H](O)[C@@H](O)[C@@H](O[C@H]5[C@H](O)[C@@H](O)[C@@H](O[C@H]6[C@H](O)[C@@H](O)[C@@H](O[C@H]7[C@H](O)[C@@H](O)[C@@H](O[C@H]8[C@H](O)[C@@H](O)[C@@H](O[C@H]1[C@H](O)[C@H]2O)O[C@@H]8COCC(C)O)O[C@@H]7COCC(C)O)O[C@@H]6COCC(C)O)O[C@@H]5COCC(C)O)O[C@@H]4COCC(C)O)O[C@@H]3COCC(C)O (stereo partly drawn) [HPβCD, 2-hydroxypropyl-beta-cyclodextrin]",plasma lysozyme activity,[1],significantly reduced; also recorded: rendered comparable to untreated wild type animals
same,plasma lysozyme activity,[1]; listed as H∪CD,decrease
same,expression of Cd68 in liver,[2]; Npc1^−/− mice,reduced to normal levels
same,expression of Col1a in liver,[2]; Npc1^−/− mice,anomalous reduction
same,expression of Itgax in liver,[2]; Npc1^−/− mice,reduced to normal levels
same,Lyz1 expression in liver,"[2]; Npc1^−/− mice, late stages",abrogated Lyz1 over expression; also recorded: restored lysozyme transcript and protein to normal levels
same,expression of Ctss in liver,[2]; late stage Npc1^−/− mice,markedly reduced and equivalent to control mice
same,"Lyz1 expression in brain, fold elevation","[3]; HPβCD-treated Npc1^−/−, late stages, untreated ~81-fold",~28 fold
same,Gfap transcript in brain,"[3]; HPβCD-treated Npc1^−/−, untreated ~9-fold",slightly reduced
same,Cd68 transcript in brain relative to Npc1^+/− mice,"[3]; HPβCD-treated Npc1^−/−, untreated ~24-fold",~6 fold
same,"Mip-1α transcripts in brain, fold increase","[3]; HPβCD-treated Npc1^−/−, untreated ~44-fold",~27 fold
same,transcripts of neuron specific 24-hydroxylase,"[3]; NPC mouse brain, qPCR",no effect
same,expression of Ctsb in brain,"[3]; Npc1^−/− mice, qPCR",returned to normal levels
same,expression of Ctsd in brain,"[3]; Npc1^−/− mice, qPCR",partial reduction
same,expression of Ctss in brain,"[3]; Npc1^−/− mice, qPCR",partial reduction
same,survival,Npc1^nih mice [4]; untreated up to ~80-84 days,105 to 112 days
same,onset of symptoms,Npc1^nih mice [4]; untreated ~49-56 days,70 to 80 days
same,24(S)-HC level in plasma,Npc1^nih Npc1^−/− mice,largely unaffected
same,Lgals3 and Ctsd transcripts,"Npc1^nih mice [5]; Npc1^−/− mice, Cluzeau et al., 2012",reduced
same,disease and survival,"Npc1^nih mice [5]; weekly injections to Npc1^nih, previous studies",ameliorates the disease and extend the survival; also recorded: reduce disease and extend the survival
same,disease status,Npc1^pf/pf mice,improvement in disease status
